Data from patent publication US7288527B2, “Inhibition of allergic contact dermatitis by N-L-alpha-aspartyl-L-phenylalanine 1-methyl ester” (priority 2004, dated 2007).
Residues, ends and D or L forms follow the SMILES beside them.

Experiments:
[1] = tested on: human skin exposed to urushiol (poison sumac, poison ivy); assay: Treatment and prevention of urushiol-induced dermatitis on human skin (Example 3, Patient 1); assay type: in vivo; settings: topical lotion with 0.5 to 1 mg APM/ml, two to three times per day, also two packets Equal by mouth
Procedure: The goats frequently consumed and were in contact with both poison sumac and poison ivy abundant in their enclosure without experiencing symptoms.
A topical APM preparation was made by mixing 2 to 3 packets of Equal® brand sweetner (80-120 mg of APM) with approximately 170 ml (5.5 fluid ounces) of lotion containing Vaseline® Intensive Care® Water Resistant Moisturizing Lotion (Unilever United States, Inc.), resulting in a lotion with 0.5 to 1 mg APM/ml. Patient 1 had previously used the lotion base without effect. Patient 1 also took two packets of Equal® brand sweetener by mouth in response to a symptom of diarrhea, a condition known to be associated with urishiol.
A soap and water scrub of the affected area was done one hour after application of the cream, and the affected area allowed to air dry.
Additional affected areas were then discovered on Patient 1, and a lotion was prepared for Patient 1 to use on these areas as well as unaffected areas that could come in contact with poison ivy during their work. Patient 1 used additional topical APM preparation approximately two to three times per day.

[2] = tested on: capsaicin burning sensation on the tongue; assay: Treatment of capsaicin irritation of the tongue (Example 6); assay type: in vivo, human; settings: dry powder, at least about 10 mg APM per 250 microliters of saliva
Procedure: A person eating spicy food seasoned with peppers is exposed to capsaicin, an irritant oil related to urushiol, causing an uncomfortable burning sensation on the tongue. APM or a derivative thereof is applied to the affected area as a dry powder in the amount of at least about 10 mg APM per 250 microliters of saliva, resulting in relief. Preferably, about 35 to about 80 mg of APM is applied to the area affected.

[3] = tested on: capsaicin taste receptor (tongue); assay: Oral application of APM with capsaicin-containing red pepper sauce; assay type: in vivo
From the text: The variability in observable results in preventing dermatitis or topical irritation appear related to the amount of APM that is applied, the time and order of the therapeutic application, and the presence of receptors to which either the irritant oil or APM may bind.

[4] = tested on: skin which may be exposed to urushiol; assay: Prevention of urushiol-induced dermatitis on human skin (Example 2); assay type: in vivo; settings: thin film of APM suspended in a petroleum cream base applied before exposure
From the text: To an area of skin which may be exposed to urushiol is applied a thin film of APM suspended in a petroleum cream base.

[5] = tested on: skin previously exposed to urushiol; assay: Treatment of allergic contact dermatitis with APM in a cream base (Example 1); assay type: in vivo; settings: thin film of APM in a cream base; after sixty (60) minutes
From the text: To an area of skin previously exposed to urushiol is applied a thin film of APM in a cream base. […] Further treatment may include washing the affected area to remove and displace urushiol dissolved in the applied lotion and followed by reapplication of APM containing cream or lotion.

[6] = tested on: human rash secondary to urushiol exposure; assay: Treatment of rash caused by urushiol (Example 4); assay type: in vivo
Procedure: A human rash, with itching, in progress secondary to contact with an animal known to have had significant exposure to urushiol substances was arrested in 8 hours with 2 applications of aspartame in a Vaseline Intensive Care Lotion base (about 1.2 to 10 mg/ml). The itching ceased, and discomfort and irritation resolved within 8 hours.

[7] = tested on: capsaicin burning of the eye; assay: Alleviation of capsaicin burning of the eye (Example 7); assay type: in vivo, human; settings: about 10 mg per 250 microliters in sterile saline applied to the affected eye
Procedure: A kitchen worker is exposed to capsaicin oil from peppers during cooking preparation, the oil is transferred to their hands and then, by their hands, to their eyes, resulting in a burning sensation and pain. […] The application may be repeated in 15 min because tearing may dilute or wash away the active ingredients.

[8] = tested on: capsaicin burning and pain of mucosa, eyes or nose; assay: APM against inadvertent mucosal contact with capsaicin cream (Example 8); assay type: in vivo, human; settings: preparation comprising 38 mg of APM per 5 ml applied to the affected area
Procedure: A patient is treated for arthritis with a capsaicin cream applied twice daily to the affected joint. Capsaicin is absorbed by the transdermal tissue and then transported to joint area. After an appropriate interval, for instance 2-5 days, significant reduction in swelling, heat, redness, and pain is observed. However, the patient also inadvertently contacts his or her urethra, periurethra tissues, vaginal mucosa, rectal mucosa, eyes, or nose with the capsaicin cream, resulting in a sensation of burning and pain in the affected area.

[9] = cited from earlier work

In the case of `COC(=O)[C@H](Cc1ccccc1)NC(=O)[C@@H](N)CC(=O)O` [APM, N-L-alpha-aspartyl-L-phenylalanine 1-methyl ester] (H-Asp-Phe-OMe), the “rash or reaction observed on the day after application” value [1] is reported as “no rash or reaction had occurred”, the “burning sensation on the tongue” value [2] is reported as “relief” and the “APM response after long exposure to capsaicin” value ([3]; long duration of exposure to capsaicin leading to secondary effects) is reported as “not as strong nor as quick”. The “recognition of spicyness of red pepper sauce” value ([3]; oral application of APM before red pepper sauce) was “absence of recognition of the spicyness”, the “effect on developed sensations of heat and irritation” value ([3]; red pepper sauce applied to the tongue first, APM applied after) was “displacement by APM of capsaicin from the taste receptor is manifested and recognized quickly” and the “symptoms of allergic contact dermatitis (prophylactic use)” value [4] was “either do not appear or are significantly reduced”. The “symptoms of allergic contact dermatitis” value [5] was “significantly reduced”, the “time to arrest of rash with itching” value ([6]; 2 applications of aspartame in Vaseline Intensive Care Lotion base (about 1.2 to 10 mg/ml)) was 8 h and the “time until itching ceased and discomfort and irritation resolved” value ([6]; 2 applications, lotion base about 1.2 to 10 mg/ml) was no more than 8 h. For the same compound, the “state of rash overnight” value ([6]; overnight after 2 applications, lotion base about 1.2 to 10 mg/ml) was “the rash was gone”, the “burning sensation of the eye” value [7] was “the burning sensation is alleviated” and the “burning and pain in the affected area” value [8] was “reducing or eliminating the burning and pain”. For the same compound, the “maximum solubility in water” value ([9]; pH 2.2) was 20 mg/mL and the “minimum solubility in water” value ([9]; pH 5.2) was 13.5 mg/mL.
